Reference: PubChem BioAssay (NCI)
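Each compound was tested at five concentrations against cells in 96-well plates for 48 hours. GI50: concentration for 50% inhibition of growth. At the TGI there is no net growth.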

Columns and labels:
Test in all cases: growth of human tumour cells (NCI), 48 h
DU-145 prostate = system: DU-145 prostate
KM12 colon = system: KM12 colon
NCI-H226 lung = system: NCI-H226 lung
OVCAR-8 ovarian = system: OVCAR-8 ovarian
SF-268 CNS = system: SF-268 CNS
SK-MEL-28 melanoma = system: SK-MEL-28 melanoma
U251 CNS = system: U251 CNS
M14 melanoma = system: M14 melanoma
SK-OV-3 ovarian = system: SK-OV-3 ovarian
HL-60(TB) leukemia = system: HL-60(TB) leukemia

| SMILES | TGI (DU-145 prostate) | TGI (KM12 colon) | TGI (NCI-H226 lung) | TGI (OVCAR-8 ovarian) | TGI (SF-268 CNS) | TGI (SK-MEL-28 melanoma) | TGI (U251 CNS) | TGI (M14 melanoma) | TGI (SK-OV-3 ovarian) | TGI (HL-60(TB) leukemia) | GI50 (HL-60(TB) leukemia) | GI50 (OVCAR-8 ovarian) | GI50 (SF-268 CNS) | GI50 (U251 CNS) |
| --- | --- | --- | --- | --- | --- | --- | --- | --- | --- | --- | --- | --- | --- | --- |
| CCOC(=O)CCCn1nnc(C(=O)OCC)c1C(=O)OCC | > 100 µM | > 100 µM | > 100 µM | > 100 µM | > 100 µM | > 100 µM | > 100 µM | – | – | – | – | – | – | – |
| S=c1sc2c(Cl)ncnc2n1-c1ccccc1 | – | 31 µM | 26.4 µM | 31.6 µM | 18.5 µM | 23.6 µM | 29.5 µM | 26.3 µM | 34.3 µM | – | – | – | – | – |
| C1CC2=C(C1)[Se]C(=C1Sc3nsnc3S1)[Se]2 | > 100 µM | > 100 µM | > 100 µM | > 100 µM | > 100 µM | > 100 µM | > 100 µM | > 100 µM | > 100 µM | – | – | – | – | – |
| O=C(COc1ccc(OCC(=O)N2C(=O)CC(=O)N(c3ccccc3)C2=S)cc1)N1C(=O)CC(=O)N(c2ccccc2)C1=S | > 100 µM | > 100 µM | > 100 µM | – | > 100 µM | > 100 µM | > 100 µM | > 100 µM | > 100 µM | – | – | – | – | – |
| CC1=NN(C(=O)CSc2nnc(SCC(=O)N3N=C(C)CC3(O)c3ccccc3)s2)C(O)(c2ccccc2)C1 (configuration not stated) | > 100 µM | 93.2 µM | – | > 100 µM | 47.2 µM | > 100 µM | > 100 µM | 36.1 µM | > 100 µM | – | – | – | – | – |
| O=C1C2CCCCC2C(=O)N1n1c(Cc2ccc(Cl)cc2)n[nH]c1=O (configuration not stated) | – | > 100 µM | > 100 µM | > 100 µM | > 100 µM | – | > 100 µM | > 100 µM | > 100 µM | – | – | – | – | – |
| CO/C(=N\N=C\c1cc(OC)ccc1OC)c1ccncc1 | – | > 10 µM | > 10 µM | > 10 µM | > 10 µM | > 10 µM | > 10 µM | – | > 10 µM | > 10 µM | – | – | – | – |
| O=C(Nc1cccc2ccccc12)Oc1ccccc1C1CCCCC1 | – | 41.7 µM | 32.7 µM | 32.5 µM | 98.9 µM | 38.1 µM | 26.7 µM | 32.4 µM | 67.7 µM | 64.2 µM | – | – | – | – |
| CC(C)(C)OC(=O)CN1CCNCCNCC1 | > 100 µM | > 100 µM | > 100 µM | > 100 µM | > 100 µM | > 100 µM | > 100 µM | > 100 µM | > 100 µM | – | – | – | – | – |
| O=C(CSc1nnc(-c2ccc(N=Cc3ccc(Cl)cc3)cc2)o1)Nc1ccccc1Cl | – | > 100 µM | > 100 µM | > 100 µM | > 100 µM | > 100 µM | > 100 µM | > 100 µM | > 100 µM | > 100 µM | – | – | – | – |
| Cc1nc2c(=S)[nH]ncc2[nH]1 | – | > 100 µM | > 100 µM | > 100 µM | – | > 100 µM | > 100 µM | > 100 µM | > 100 µM | > 100 µM | – | – | – | – |
| O=C(O)CCCl | – | > 5000 µM | > 5000 µM | > 5000 µM | > 5000 µM | > 5000 µM | > 5000 µM | > 5000 µM | > 5000 µM | > 5000 µM | – | – | – | – |
| COC(=O)c1cn(CCCC(=O)O)nn1 | > 100 µM | > 100 µM | > 100 µM | > 100 µM | > 100 µM | > 100 µM | > 100 µM | – | – | – | – | – | – | – |
| C[N+]1(C)CCCC1C(=O)[O-] (configuration not stated) | – | > 100 µM | > 100 µM | > 100 µM | > 100 µM | > 100 µM | > 100 µM | > 100 µM | > 100 µM | > 100 µM | – | – | – | – |
| FC(F)(F)c1ccc(-c2nc(-c3nc4cc(Cl)c(Cl)cc4[nH]3)c3ccccn23)cc1 | – | – | – | > 100 µM | > 100 µM | – | > 100 µM | – | – | > 100 µM | > 100 µM | 6.61 µM | 4.19 µM | 3.13 µM |
| COc1ccc(-c2nc(N)c(C#N)c3c2CCS(=O)(=O)c2ccc(C)cc2-3)cc1OC | > 100 µM | 52.3 µM | > 100 µM | > 100 µM | > 100 µM | > 100 µM | > 100 µM | > 100 µM | – | – | – | – | – | – |
| COC(=O)C(=O)C(C(=O)Nc1cccc(C)c1C)C1Sc2ccccc2NC1=O (configuration not stated) | – | > 25 µM | > 25 µM | > 25 µM | > 25 µM | > 25 µM | > 25 µM | > 25 µM | > 25 µM | > 25 µM | – | – | – | – |
| C=C1C(=O)OC2/C=C(\C)C(OC(C)=O)C3OC3C(C)(O)CC(OC(=O)/C(C)=C/C)C12 (configuration not stated) | – | 28.7 µM | 23.4 µM | 24.4 µM | 30.2 µM | 16.2 µM | 24.5 µM | 16 µM | 34.5 µM | 5.81 µM | – | – | – | – |
| COc1cccc2c1OC1c3ccccc3OCC1C2 (configuration not stated) | > 100 µM | > 100 µM | > 100 µM | > 100 µM | > 100 µM | – | > 100 µM | > 100 µM | > 100 µM | – | – | – | – | – |
| Nc1nc(N)c2ncn(CC3CCC(CO)C3)c2n1 (configuration not stated) | > 100 µM | > 100 µM | > 100 µM | – | > 100 µM | > 100 µM | > 100 µM | > 100 µM | > 100 µM | – | – | – | – | – |
| O=C1c2ccccc2C(=O)N1n1c(Cc2ccccc2)n[nH]c1=O | > 100 µM | > 100 µM | > 100 µM | > 100 µM | – | > 100 µM | > 100 µM | > 100 µM | – | – | – | – | – | – |
